{"source": "patent US8859612B2", "about": "“Use of hesperidin or one of its derivatives for making a medicine for bone formation stimulation” (Institut National de la Recherche Agronomique (INRA), priority 2002, dated 2014)", "key": {"hPOB-tert cells [1]": {"system": "hPOB-tert cells", "test": "Alkaline phosphatase activity in hPOB-tert cells (Example 2)", "assay_type": "cell-based, human", "method": "(§1) We have tested three concentrations of hesperetin in the hPOB culture medium seeded to confluence: 1, 10 and 50 μM. Furthermore, these media lacked osteoblast differentiation factors (Vitamin D3 and dexamethasone). The control contained 0.1% DMSO (hesperetin being dissolved in the DMSO). The cells were incubated in these media for 35 days. The alkaline phosphatase activity, a marker of osteoblast differentiation, was measured on a cell lysate by using a commercial kit (Sigma No 247). The cells had been harvested at 0, 4, 8 and 12 days of incubation. The calcium content of the cells, the mineralisation marker, was quantified on a cell lysate after 21 days of incubation in the different media, with the aid of a commercial kit (Sigma No587)."}, "hPOB-tert cells [2]": {"system": "hPOB-tert cells", "test": "Accumulation of calcium in hPOB-tert cells (Example 2)", "assay_type": "cell-based, human", "conditions": "hesperetin 50 μM, 21 days of incubation, vs control cells (0.1% DMSO)", "method": "as §1"}, "[3]": {"system": "oophorectomised rat (OVX) and sham-operated control rats (SH)", "test": "Uterine weight (Example 1)", "assay_type": "in vivo, Wistar rats", "conditions": "3 months; for uterine weight: hesperidin 0.5% in diet", "text": "(§2) In order to study the possible impact of this molecule on bone tissue, 40 female 3 months old Wistar rats (266±2 g) were used. These animals were accustomed to a basic semi-synthetic diet for the 7 days preceding the start of the period of experimentation. At D0, 20 rats were sham-operated, the other 20 were oophorectomised. Distributed in groups of 10, they were fed on various diets for 3 months, at the end of which they were sacrificed. The last week before being killed, from D85 to D90, the rats were inspected and the urine was collected (over a period of 24 hours). Similarly, the body composition of the rats was measured. After being killed the plasma and the femurs were collected for different analyses [Femurs: resistance to rupture, densitometry; Plasma: osteocalcinemia (marker for osteoblast activity), hesperetin level: Urines: desoxypyridinoline (marker for bone resorption)]. Throughout the entire duration of the experimentation, the rats were weighed once a week. The daily quantity of food distributed to each animal was 20 g.\n(§3) 10 T SH and 10 T OVX: sham-operated and oophorectomised rats receiving a standard control diet for 3 months\n(§4) 10 Hp SH et 10 Hp OVX: sham-operated and oophorectomised rats receiving a standard control diet supplemented with hesperidin (0.5%) for 3 months\nThe uterine weight was evaluated in order to validate the castration."}, "[4]": {"system": "oophorectomised rat (OVX) and sham-operated control rats (SH)", "test": "Femoral biomechanics (Example 1)", "assay_type": "in vivo, Wistar rats", "text": "as §2, §3, §4"}, "[5]": {"system": "oophorectomised rat (OVX) and sham-operated control rats (SH)", "test": "Femoral densitometry (Example 1)", "assay_type": "in vivo, Wistar rats", "conditions": "for Total femoral density (T-BMD): hesperidin 0.5% in diet, 3 months", "text": "as §2, §3, §4\nThe densities are expressed in g/cm^2."}, "[6]": {"system": "oophorectomised rat (OVX) and sham-operated control rats (SH)", "test": "Urinary excretion of desoxypyridinoline, marker for bone resorption (Example 1)", "assay_type": "in vivo, Wistar rats", "text": "as §2, §3, §4"}, "[7]": {"system": "oophorectomised rat (OVX) and sham-operated control rats (SH)", "test": "Plasma levels of osteocalcin, marker for osteoblast activity (Example 1)", "assay_type": "in vivo, Wistar rats", "conditions": "Hp SH vs T SH, p<0.05 (FIG. 4)", "text": "as §2, §3, §4"}, "[8]": {"test": "Circulating levels of hesperetin (Example 1)", "assay_type": "in vivo, Wistar rats", "conditions": "OVX and SH rats receiving diet supplemented with hesperidin 0.5%, 3 months", "text": "as §2, §4"}, "[9]": {"system": "six months' old oophorectomised rat", "test": "Uterine weight, six months' old rats (Example 3)", "assay_type": "in vivo, Wistar rats", "method": "(§5) The experiments were performed on 48 six months' old female Wistar rats: 24 oophorectomised (OVX) and 24 sham-operated (SH).\n(§6) After the surgical operation on D0, the animals were given seven days to accustom themselves to their surroundings. At the end of this period of adaptation, the rodents were distributed on the basis of weight parameters in 4 homogeneous groups and received daily for 72 days 22 g of the following diets: • group SH: 12 sham-operated rats fed with the control diet • group OVX: 12 oophorectomised rats which received the control diet • group SH Hp: 12 sham-operated rats fed with the hesperidin diet • group OVX Hp: 12 oophorectomised rats which received the hesperidin diet\nWhen sacrificed (D90), the animals were anesthetised by an intra-peritoneal injection of chloral (Fluka: 8% solution; 0.4 ml/100 g live weight). Blood samples were collected from the abdominal aorta. The uterus was weighed."}, "[10]": {"system": "six months' old oophorectomised rat", "test": "Bone mineral density of the femur, six months' old rats (Example 3)", "assay_type": "in vivo, Wistar rats", "conditions": "six months' old OVX rats, consumption of hesperidin (FIG. 11)", "method": "as §5, §6\nThe femurs were extracted and adjacent soft tissues were removed, then the femurs were stored in 80% ethanol for the determination of bone density."}, "[11]": {"system": "six months' old oophorectomised rat", "test": "Biomechanical properties of the femur, six months' old rats (Example 3)", "assay_type": "in vivo, Wistar rats", "conditions": "hesperidin diet (FIG. 14)", "method": "as §5, §6\nThe mechanical properties of the femur of the individuals of the different groups of animals were analysed."}}, "data": [{"smiles": "COc1ccc([C@@H]2CC(=O)c3c(O)cc(O)cc3O2)cc1O", "note": "[hesperetin, (S)-2,3-dihydro-5,7-dihydroxy-2-(3-hydroxy-4-methoxyphenyl)-4H-1-benzopyran-4-one]", "values": [{"measurement": "alkaline phosphatase activity (osteoblast differentiation)", "setting": "hPOB-tert cells [1]; hesperetin 1 μM, vs untreated cells, no vitamin D3 or dexamethasone", "result": "lacks effect"}, {"measurement": "alkaline phosphatase activity (osteoblast differentiation)", "setting": "hPOB-tert cells [1]; hesperetin 10 μM, from the 4th day onwards, plateau on the 8th day", "result": "increase"}, {"measurement": "alkaline phosphatase activity (osteoblast differentiation)", "setting": "hPOB-tert cells [1]; hesperetin 50 μM, from the 4th day onwards, plateau on the 8th day", "result": "most efficacious"}, {"measurement": "calcium deposition (calcium content of the cells)", "setting": "hPOB-tert cells [2]", "result": "stimulate calcium deposition"}]}, {"smiles": "COc1ccc([C@@H]2CC(=O)c3c(O)cc(O[C@@H]4O[C@H](CO[C@@H]5O[C@@H](C)[C@H](O)[C@@H](O)[C@H]5O)[C@@H](O)[C@H](O)[C@H]4O)cc3O2)cc1O", "note": "[hesperidin, (S)-7-[[6-0-(6-deoxy-α-L-mannopyranosyl)-β-D-glucopyranosyl]oxy]-2,3-dihydro-5-hydroxy-2-(3-hydroxy-4-methoxyphenyl)-4H-1-benzopyran-4-one]", "values": [{"measurement": "uterine weight", "setting": "[3]; Hp OVX: oophorectomised rats, ** p<0.01 vs SH", "result": "238.6 ± 2.23** mg"}, {"measurement": "uterine weight", "setting": "[3]; Hp SH: sham-operated rats", "result": "659.4 ± 8.96", "unit": "mg"}, {"measurement": "uterotrophic effect", "setting": "[3]; uterine weight not modified by consumption of hesperidin 0.5% in diet", "result": "lack a uterotrophic effect"}, {"measurement": "Femoral resistance to rupture", "setting": "[4]; Hp SH: sham-operated rats, hesperidin 0.5% in diet, 3 months", "result": "106.3 ± 5.3", "unit": "N"}, {"measurement": "femoral resistance to rupture, effect in words", "setting": "[4]; oophorectomised rats, diet supplemented with hesperidin", "result": "tendency to improve"}, {"measurement": "Total femoral density (T-BMD)", "setting": "[5]; Hp OVX: oophorectomised rats", "result": 0.2445, "unit": "g/cm^2"}, {"measurement": "Total femoral density (T-BMD)", "setting": "[5]; Hp SH: sham-operated rats", "result": 0.2501, "unit": "g/cm^2"}, {"measurement": "diaphyseal femoral density, effect in words", "setting": "[5]; both OVX and SH rats vs groups on standard diet, p<0.05", "result": "significantly improves"}, {"measurement": "metaphyseal femoral density (M-BMD)", "setting": "[5]; intact or oophorectomised rats on hesperidin diet vs standard diet (FIG. 2)", "result": "increase"}, {"measurement": "metaphyseal femoral density (M-BMD), mineralisation", "setting": "[5]; non-castrated animals, by comparison with T SH", "result": "improvement of the mineralisation"}, {"measurement": "total femoral density, effect on demineralisation induced by oophorectomy", "setting": "[5]; oophorectomised rats, consumption of hesperidin", "result": "completely prevents this demineralisation"}, {"measurement": "total femoral density, effect in words", "setting": "[5]; sham-operated (SH) rats, consumption of hesperidin", "result": "significantly improves"}, {"measurement": "urinary excretion of DPD", "setting": "[6]; Hp SH rats in comparison with T SH", "result": "significantly diminished"}, {"measurement": "urinary excretion of desoxypyridinoline: increase of bone resorption induced by oophorectomy", "setting": "[6]; OVX rats, consumption of hesperidin (FIG. 3)", "result": "prevented"}, {"measurement": "plasma levels of osteocalcin (bone accretion)", "setting": "[7]", "result": "stimulates bone accretion"}, {"measurement": "mean plasma level of aglycone (hesperetin)", "setting": "[8]", "result": "12.53 ± 2.48", "unit": "µM"}, {"measurement": "uterine atrophy following ovarian ablation", "setting": "[9]; OVX rats, consumption of hesperidin (FIG. 10)", "result": "not prevented"}, {"measurement": "uterotrophic effect", "setting": "[9]; six months' old rats, hesperidin diet (FIG. 10)", "result": "lacks a uterotrophic effect"}, {"measurement": "demineralisation of the femur (total bone mineral density)", "setting": "[10]", "result": "prevented (at least partially)"}, {"measurement": "biomechanical properties of the femur (femoral load at rupture)", "setting": "[11]; OVX Hp: six months' old oophorectomised rats", "result": "preserve them"}, {"measurement": "biomechanical properties of the femur (femoral load at rupture)", "setting": "[11]; intact (sham-operated) six months' old rats", "result": "improve them"}]}]}
